Experimental data taken from patent US5312816A, “Method of combatting osteoporosis in mammalian subjects, utilizing organic boron compounds” (priority 1993, dated 1994).
Where a name gives a salt, the structure may show the parent alone. Read-outs that look alike come from different tables or passages of the source.

Assays:
[1] = test system: Hydroxyproline; assay: Serum and urine hydroxyproline levels in vivo; conditions: Cf1 male mice, 8 mg/kg/day I.P. 14 days, N=6
[2] = test system: Calcium; assay: Serum and urine calcium levels in vivo; conditions: Cf1 male mice, 8 mg/kg/day I.P. 14 days, N=6
[3] = test system: Phosphorus; assay: Serum and urine inorganic phosphorus levels in vivo; conditions: Cf1 male mice, 8 mg/kg/day I.P. 14 days, N=6
[4] = target: T1, Prostaglandin synthetase (Bos taurus, UniProt O62664); assay: Prostaglandin synthetase (cyclooxygenase), purified beef seminal vesicle; type: biochemical; conditions: Table IX; commercial enzyme preparation; read-out: Beef Prostaglandin Cyclooxygenase IC50
T1 construct: Prostaglandin synthetase purified beef seminal vesicle; from tissue
T1 sequence (O62664 25-600): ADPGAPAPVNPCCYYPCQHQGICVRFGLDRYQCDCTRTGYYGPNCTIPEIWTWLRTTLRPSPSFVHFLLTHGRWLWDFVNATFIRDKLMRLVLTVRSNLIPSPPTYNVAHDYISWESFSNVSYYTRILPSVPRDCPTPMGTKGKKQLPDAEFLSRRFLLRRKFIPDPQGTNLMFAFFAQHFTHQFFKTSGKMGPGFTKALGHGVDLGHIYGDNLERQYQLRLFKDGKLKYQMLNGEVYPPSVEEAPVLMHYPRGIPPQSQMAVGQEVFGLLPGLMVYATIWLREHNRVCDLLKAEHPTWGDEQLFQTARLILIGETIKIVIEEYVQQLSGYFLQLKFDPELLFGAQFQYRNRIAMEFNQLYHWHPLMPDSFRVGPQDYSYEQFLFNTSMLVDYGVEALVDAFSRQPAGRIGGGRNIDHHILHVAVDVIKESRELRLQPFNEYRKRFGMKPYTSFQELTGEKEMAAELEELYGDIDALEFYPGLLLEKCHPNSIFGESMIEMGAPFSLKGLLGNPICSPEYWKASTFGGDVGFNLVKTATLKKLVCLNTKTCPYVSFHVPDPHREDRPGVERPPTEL
Excerpt: (§1) Prostaglandin synthetase purified beef seminal vesicle ^3 H arachidonic acid (86.2 Ci/mmol), tlc separation.

[5] = target: T2, Cathepsin D (Mus musculus, UniProt P18242); assay: Mouse hepatic lysosomal cathepsin D activity; type: biochemical; conditions: mouse hepatic, 60 min incubation, read-out: Cathepsin D IC50
T2 construct: azocasein assay pH 5.0
T2 sequence (P18242 65-410): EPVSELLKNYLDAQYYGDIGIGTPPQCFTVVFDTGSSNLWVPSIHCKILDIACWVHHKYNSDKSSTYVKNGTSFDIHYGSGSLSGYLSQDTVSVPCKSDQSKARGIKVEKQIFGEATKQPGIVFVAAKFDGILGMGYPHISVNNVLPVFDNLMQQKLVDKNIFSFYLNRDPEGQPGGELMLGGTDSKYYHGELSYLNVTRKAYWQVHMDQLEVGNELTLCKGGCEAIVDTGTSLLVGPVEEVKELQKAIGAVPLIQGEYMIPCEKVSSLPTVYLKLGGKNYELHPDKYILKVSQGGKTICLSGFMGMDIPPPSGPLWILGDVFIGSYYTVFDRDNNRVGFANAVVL
Excerpt: (§2) 1. Cf1 male mouse hepatic 10% homogenates in 0.25M sucrose+0.001MEDTA,pH 7.2.
(§3) Lysosomal Enzymes - free and total [triton X-100].
(§4) 2. Acid Cathepsin D -azocasein-pH 5.0, hydrolytic azo-peptide produce 366 nm.
Cathepsin azo casein activity -

[6] = test system: Aryl sulphatase; assay: Human osteoporosis fibroblasts aryl sulphatase activity; type: cell-based; conditions: read-out: Aryl Sulphatase IC50; Table X; human osteoporosis fibroblasts
Excerpt: (§5) 3. Aryl sulphatase- p-nitrocatechol sulfate, pH
(§6) 5. 8 p-nitro-catechol product 510 nm.

[7] = target: Acid phosphatase; assay: Mouse hepatic lysosomal acid phosphatase activity; type: biochemical; conditions: mouse hepatic, 60 min incubation
Excerpt: as §2, §3
(§7) 1. Acid phosphatase -beta glycerol-3-phosphate, pH 5.0, released IP 720 nm.
Acid phosphatase activity -

[8] = target: T3, Cathepsin D (Homo sapiens, UniProt P07339); assay: Human osteoporosis fibroblasts cathepsin D (azo-casein) activity; type: cell-based; conditions: Table X; human osteoporosis fibroblasts, DMEM +10% FCS + P/S; read-out: Cathepsin D IC50
T3 construct: azocasein assay pH 5.0
T3 sequence (P07339 65-412): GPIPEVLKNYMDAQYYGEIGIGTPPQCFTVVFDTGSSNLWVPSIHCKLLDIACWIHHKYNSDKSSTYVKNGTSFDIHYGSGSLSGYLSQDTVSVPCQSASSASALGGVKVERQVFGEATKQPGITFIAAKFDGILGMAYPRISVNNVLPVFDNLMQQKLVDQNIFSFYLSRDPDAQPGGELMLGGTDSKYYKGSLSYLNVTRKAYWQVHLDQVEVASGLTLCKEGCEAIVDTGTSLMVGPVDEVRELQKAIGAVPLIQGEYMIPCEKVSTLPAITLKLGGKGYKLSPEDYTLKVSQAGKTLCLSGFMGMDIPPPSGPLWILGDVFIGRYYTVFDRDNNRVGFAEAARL
Excerpt: Osteoporosis Human Fibroblast-CRL-1140, Be SA1

[9] = test system: Acid phosphatase; assay: Human osteoporosis fibroblasts acid phosphatase activity; type: cell-based; conditions: read-out: Acid Phosphatase IC50; Table X; human osteoporosis fibroblasts
Excerpt: as §7

[10] = test system: Cf1 male mice; assay: Writhing reflex, 0.6% acetic acid; type: in vivo; conditions: Mus musculus, ip; Table IV; 8 mg/kg I.P.
[11] = target: Aryl sulphatase; assay: Mouse macrophage aryl sulphatase activity; type: cell-based; conditions: Table XVII; mouse macrophage, 60 min incubation; read-out: Aryl Sulphatase IC50
[12] = target: Prostaglandin cyclooxygenase; assay: Mouse macrophage prostaglandin cyclooxygenase activity; type: cell-based; conditions: Table XVIII; mouse macrophage, 60 min incubation; read-out: Prostaglandin Cyclooxygenase IC50
Excerpt: (§8) 3. Mouse macrophages J774A.1 BALB/c
as §1

[13] = test system: Cf1 male mice; assay: Hot plate tail flick test; type: in vivo; conditions: Table XIV; unit not given
[14] = target: Aryl sulphatase; assay: Mouse hepatic lysosomal aryl sulphatase activity; type: biochemical; conditions: Table XV, 60 min incubation
Excerpt: as §2, §3, §5, §6

[15] = test system: Trypsin; assay: Mouse macrophage trypsin (BAEE) activity; type: cell-based; conditions: Table XVIII; mouse macrophage, 60 min incubation; read-out: Trypsin BAEE IC50
[16] = test system: Cf1 male mice; assay: Anti-inflammatory screen, Winter's test, 2% carrageenan hind foot; type: in vivo; conditions: Table XIV; unit inferred; unit assumed
Procedure: Anti-inflammatory Screen- Cf1 - male mice-Winter's Test 2% carrageenan S.C. plantar surface of hind foot, drugs administered @8 or 10 mg/kg I.P. 2X
Winter, C.A., et al, Proc. Soc.

[17] = target: Elastase; assay: Mouse macrophage elastase activity; type: cell-based; conditions: Table XVIII; mouse macrophage, 60 min incubation; read-out: Elastase IC50
Excerpt: Elastase- N-succinyl-L-alanyl-L-alanine-p-nitroanilide, pH 8.0, p-nitro anilide 410 nm.

[18] = target: T4, Pg. cyclooxygenase (Sus scrofa, UniProt A0A287ANF9); assay: Porcine seminal vesicles Pg. cyclooxygenase; type: biochemical
T4 construct: Porcine Seminal; from tissue; the methods section prints beef seminal vesicle
T4 sequence (A0A287ANF9 25-600): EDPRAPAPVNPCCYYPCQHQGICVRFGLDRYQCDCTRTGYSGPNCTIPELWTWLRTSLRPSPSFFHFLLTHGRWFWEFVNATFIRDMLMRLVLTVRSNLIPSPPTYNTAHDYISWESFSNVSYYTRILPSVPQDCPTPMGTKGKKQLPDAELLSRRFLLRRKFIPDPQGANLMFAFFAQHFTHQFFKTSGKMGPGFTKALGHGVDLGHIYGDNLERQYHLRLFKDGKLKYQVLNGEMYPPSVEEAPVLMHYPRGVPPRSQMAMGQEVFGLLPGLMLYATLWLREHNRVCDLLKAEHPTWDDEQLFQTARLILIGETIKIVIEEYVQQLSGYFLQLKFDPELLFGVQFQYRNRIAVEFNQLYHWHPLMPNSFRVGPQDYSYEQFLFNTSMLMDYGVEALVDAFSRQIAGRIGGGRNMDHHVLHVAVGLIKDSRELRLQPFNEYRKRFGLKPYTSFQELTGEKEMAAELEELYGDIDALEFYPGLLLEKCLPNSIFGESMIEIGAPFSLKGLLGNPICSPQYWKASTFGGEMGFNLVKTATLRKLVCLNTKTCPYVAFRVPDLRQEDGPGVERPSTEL

[19] = test system: Cf1 male mice; assay: Writhing reflex, 0.6% acetic acid; type: in vivo; conditions: Table XIV; unit inferred; unit assumed
Procedure: Writhing reflex- Cf1 -male mice- 0.6% acetic acid I.P. drugs administered @20 mg/kg/ I.P. 20 min. later - the # of stretches/10 min.
Hendershot, L.C., et al, J.

[20] = target: Acid phosphatase; assay: Mouse macrophage acid phosphatase activity; type: cell-based; conditions: Table XVII; mouse macrophage, 60 min incubation; read-out: Acid Phosphatase IC50
[21] = test system: Trypsin; assay: Mouse hepatic trypsin activity; type: biochemical; conditions: Table XVI; 60 min incubation; read-out: Mouse Hepatic Trypsin IC50
Excerpt: as §2
1. Trypsin- N-benzoyl-L-arginine ethyl ester pH 8.0, hydrolytic product 253 nm.

[22] = target: Commercial Collagenase; assay: Commercial collagenase (type not stated); type: biochemical; conditions: Table XVI, 60 min incubation
Excerpt: 3. Collagenase I, Clostridium histolyticum, bone, skin, tendon, blood vessel, dentine, GI. substrate: rat collagen, N-[propionate-2-3-^3 H] propionylated measured as dpm released.
4. Collagenase II, Clostridium histolyticum, cartilage collagen.

[23] = target: T2, Cathepsin D; assay: Mouse macrophage cathepsin D activity; type: cell-based; conditions: Table XVII; mouse macrophage, 60 min incubation; read-out: Cathepsin D pH 5.0 IC50
Excerpt: as §8, §4

Row | Structure (SMILES) | Hydroxyproline serum [1] | Hydroxyproline urine [1] | Calcium serum [2] | Calcium urine [2] | Phosphorus serum [3] | Phosphorus urine [3] | IC50 [11] | IC50 [12] | IC50 ([5]; Table XV) | Tail Flick Mice [13] | IC50 [14] | IC50 [15] | Anti-Inflammation Cf1 Mice [16] | IC50 [17] | Writhing Reflex Mice [19] | IC50 [20] | IC50 [21] | IC50 ([7]; Table XV) | IC50 [23] | also measured
1 | C[NH2+][BH2-]C(=O)OC [CH3 NH2 BH2 COOCH3, Methylamine-carbomethoxyborane] | 68.0 % Control | 144.1 % Control | 105.1 % Control | 176.9 % Control | 65.3 % Control | 136.8 % Control |  |  |  |  |  |  |  |  |  |  |  |  |  | 
2 | O=C(O)[BH2-][P+](c1ccccc1)(c1ccccc1)c1ccccc1 [Compound 8, Triphenylphosphine-carboxyborane] | 60.5 % Control | 30.0 % Control |  | 83.5 % Control |  |  |  |  |  |  |  |  |  |  |  |  |  |  |  | 
3 | O=C(O)[BH2-][n+]1ccccc1 [Compound 15, Pyridine-carboxyborane] |  |  |  |  |  |  |  |  |  |  |  |  |  |  |  |  |  |  |  | IC50 [4]: 7.6 µM; IC50 ([5]; Table V): 4.8 µM; IC50 [6]: 8.16 µM; IC50 ([7]; Table V): 10 µM; IC50 [8]: 8.16 µM; IC50 [9]: 18.3 µM; response vs control in vivo at 8 mg/kg [10]: 50%
4 | COC(=O)[BH2-][NH+](C)C [(CH3)2 NHBH2 COOCH3, Dimethylamine-carbomethoxyborane] | 84.4 % Control | 50.5 % Control | 125.4 % Control | 80.7 % Control | 42.8 % Control | 67.8 % Control |  |  |  |  |  |  |  |  |  |  |  |  |  | 
5 | CC#N.CO.CO.CO.C[N+](C)(C)[BH2-]C(=O)[O-].C[N+](C)(C)[BH2-]C(=O)[O-].C[N+](C)(C)[BH2-]C(=O)[O-].C[N+](C)(C)[BH2-]C(=O)[O-].C[N+](C)(C)[BH2-]C(=O)[O-].C[N+](C)(C)[BH2-]C(=O)[O-].O=[N+]([O-])[O-].[Fe+3].[Fe+3].[Fe+3].[O-2] [Compound 24] |  |  |  |  |  |  | 1.95 µM | 2.34 µM | 6.84 µM | 338 | 2.57 µM | 2.37 µM | 81.6% | 3.92 µM | 42.9% | 2.09 µM | 9.93 µM | 5.6 µM | 2.85 µM | IC50 ([18]; Table XVI, 60 min incubation): 2.9 µM; IC50 [22]: 478 µM
6 | C[N+](C)(C)[BH2-]C(=O)O [Compound 22, Trimethylamine-carboxyborane, sodium salt] |  |  |  |  |  |  | 1.33 µM | 2.41 µM | 6.69 µM | 101 | 5.15 µM | 2.27 µM | 73.4% | 7.26 µM | 76.5% | 2 µM | 9.98 µM | 3.56 µM | 1.92 µM | IC50 [18]: 2.4 µM; IC50 ([22]; sodium salt): 490 µM
